Results: patent US11753363B2, “13-oxidized ingenol derivative and use thereof” (Tianjin Pharmaceutical Da Ren Tang Group Corp., Ltd. …, priority 2017, dated 2023)
Converted amounts (≈) assume the structure as drawn.

Tests used:
Assay type in all cases: cell-based
[1] = tested on: MCF-7 (human breast cancer cells); assay: Inhibition of proliferation of tumor cell lines (MTT), MCF-7; details: for IC50: Homo sapiens, MCF7, MCF-7, 72 h, read-out: IC50 value of compound for inhibition of proliferation of tumor cell lines, MCF-7
Protocol: (§1) In this example, the inhibitory activity of compounds of the present invention against proliferation of seven human tumor cell lines and mouse B16-F10 melanoma cells was tested in vitro, and the IC50 value (50% inhibitory concentration) of compounds against each tumor cell line was calculated.
(§2) The seven human tumor cell lines are: MCF-7 (human breast cancer cells), LOVO (human colon cancer cells), A549 (human lung cancer cells), BGC-823 (human gastric cancer cells), SMMC-7721 (human liver cancer cells), K562 (human leukemia cells), and HeLa (human cervical cancer cells).
(§3) IC50 values of the compounds for A549, BGC-823, LOVO, MCF-7, SMMC-7721, HeLa, and B16-F10 cells were tested. The above cells were routinely cultured in 1640 nutrient solution containing 10% calf serum, with passage for 1 time every 2 days, and the cells in logarithmic growth phase were taken for experiments. After the A549, BGC-823, LOVO, MCF-7, SMMC-7721, HeLa and B16-F10 cells in logarithmic growth phase were subjected to 0.25% trypsin digestion, they were blown into a single cell suspension, and then the cell concentration was adjusted to about 1×10^5·mL^−1 using RPMI 1640 solution containing 10% calf serum. The cells were seeded in a 96-well culture plate at 100 μL per well, and cultured for 24 hours until the cells were attached. K562 cells were taken and centrifuged and diluted into 2×10^5·mL^−1 single cell suspension with RPMI 1640 solution containing 10% calf serum, and inoculated into a 96-well culture plate at 100 μL per well.
(§4) 100 μL of sample solution with different concentrations to be tested were added to the above 96-well plate, each concentration was added to 4 wells in parallel, and the cell control group was added with an equal volume of RPMI 1640 medium containing 10% calf serum to make a reaction volume of 200 μL. After incubating in an incubator at 37° C., 5% CO2 for 72 h, 10 μL of 5 mg·mL^−1 MTT solution was added to each well, and incubated at 37° C. for 4 h. The supernatant was carefully aspirated, 180 μL of DMSO was added to each well followed by shaking, and the absorbance (OD) value was measured at 570 nm on the microplate reader. The inhibition rate was calculated, and regression equation was established with the logarithmic value of the sample concentration and the inhibition rate (IR) to find the IC50 value of the compound against the cells to be tested. IR (%)=(1−OD value of the experimental group/OD value of the cell control group)×100%

[2] = tested on: release of IL-8 by human keratinocytes (HaCaT); assay: Release of IL-8 by human keratinocytes (HaCaT), IL-8 Elisa; details: 24 h, (Csample−Ccontrol)/Ccontrol×100%; for activation at 0.1 µg/mL / activation at 1 µg/mL: Homo sapiens, HaCaT, read-out: Efficiency of compound in stimulating the release of IL-8 by HaCaT cells
Protocol: This Example investigated the effect of compound on release of IL-8 by human keratinocytes (HaCaT) and calculated the efficiency of each compound in stimulating the release of IL-8 by human keratinocytes (HaCaT).
Hacat cells were cultured in MEM+10% FBS under the conditions of 37° C., 5% CO2, and when the cells reached 80-95% fusion, they were inoculated into a 96-well culture plate (1×10^4 cells/well) at 100 μL/well, and incubated for 18-24 h. The supernatant was discarded and the cells were incubated for 3-6 h in 1% FBS medium. Different concentrations of the sample solution of compound to be tested were added to each well, and the cell control group was added with an equal volume of 1% FBS medium at 10 μL/well, and incubated for 24 h. The supernatant was taken and tested according to the operation sequence of the IL-8 Elisa kit. Calculation formula of Efficiency: Efficiency (%)=(Csample−Ccontrol)/Ccontrol×100%

[3] = tested on: LOVO (human colon cancer cells); assay: Inhibition of proliferation of tumor cell lines (MTT), LOVO; details: 72 h; for IC50: Homo sapiens, read-out: IC50 value of compound for inhibition of proliferation of tumor cell lines, LOVO
Protocol: as §1, §2, §3, §4

[4] = tested on: mouse B16-F10 melanoma cells; assay: Inhibition of proliferation of tumor cell lines (MTT), B16-F10; details: B16-F10, 72 h; for IC50: Mus musculus, read-out: IC50 value of compound for inhibition of proliferation of tumor cell lines, B16-F10
Protocol: as §1, §3, §4

[5] = tested on: BGC-823 (human gastric cancer cells); assay: Inhibition of proliferation of tumor cell lines (MTT), BGC-823; details: BGC-823, 72 h; for IC50: Homo sapiens, read-out: IC50 value of compound for inhibition of proliferation of tumor cell lines, BGC-823
Protocol: as §1, §2, §3, §4

[6] = tested on: HeLa (human cervical cancer cells); assay: Inhibition of proliferation of tumor cell lines (MTT), HeLa; details: 72 h; for IC50: Homo sapiens, read-out: IC50 value of compound for inhibition of proliferation of tumor cell lines, HeLA
Protocol: as §1, §2, §3, §4

[7] = tested on: K562 (human leukemia cells); assay: Inhibition of proliferation of tumor cell lines (MTT), K562; details: K562, 72 h; for IC50: Homo sapiens, read-out: IC50 value of compound for inhibition of proliferation of tumor cell lines, K562
Protocol: as §1, §2, §3, §4

[8] = tested on: A549 (human lung cancer cells); assay: Inhibition of proliferation of tumor cell lines (MTT), A549; details: A549, 72 h; for IC50: Homo sapiens, read-out: IC50 value of compound for inhibition of proliferation of tumor cell lines, A549
Protocol: as §1, §2, §3, §4

[9] = tested on: SMMC-7721 (human liver cancer cells); assay: Inhibition of proliferation of tumor cell lines (MTT), SMMC-7721; details: SMMC-7721, 72 h; for IC50: Homo sapiens, read-out: IC50 value of compound for inhibition of proliferation of tumor cell lines, SMMC-7721
Protocol: as §1, §2, §3, §4

[10] = tested on: neutrophilic granulocytes; assay: Neutrophil oxidative burst (luminol chemiluminescence); details: rat neutrophils, (Csample−Ccontrol)/Ccontrol×100%; for activation at 0.1 µg/mL / activation at 3 µg/mL: Neutrophil, read-out: Efficiency of compounds in stimulating neutrophil oxidative burst; for activation at 0.1 µg/mL: 0.1 μg/mL
Protocol: This example investigated the effect of compound on neutrophil oxidative burst and calculated the efficiency of each compound in stimulating neutrophil oxidative burst.
Blood was taken from the abdominal aorta of rat. The neutrophilic granulocytes were isolated by the operational procedure of the rat peripheral blood neutrophil isolation kit. The neutrophilic granulocytes were re-suspended by Hanks, and were plated in a 96-well white plate at 1×10^5 cells/well, 80 μL/well; 1 mM of Luminol was added at 10 μL/well; 10 μL of the sample was added to each well, and the degree of oxidative burst was evaluated by chemiluminescence. Calculation formula of Efficiency: Efficiency (%)=(Csample−Ccontrol)/Ccontrol×100%

SMILES	IC50 [1] [µg/mL]	activation at 0.1 µg/mL ([2]; 0.1 μg/mL) [%]	IC50 [3] [µg/mL]	IC50 [4] [µg/mL]	IC50 [5] [µg/mL]	IC50 [6] [µg/mL]	IC50 [7] [µg/mL]	IC50 [8] [µg/mL]	IC50 [9] [µg/mL]	activation at 3 µg/mL ([10]; 3 μg/mL) [%]	other results
CCCCCCCCCCCC(=O)O[C@@]12C[C@@H](C)[C@]34C=C(C)[C@H](OC(=O)C(C)C(C)C)[C@@]3(O)[C@H](O)C(CO)=C[C@H](C4=O)[C@@H]1C2(C)C (some centres unmarked) [3-O-(2,3-dimethylbutyryl)-13-O-dodecanoyl-ingenol]	9.05 (≈ 14 µM)	50	7.6 (≈ 11.8 µM)	17.8 (≈ 27.6 µM)	10.4 (≈ 16.1 µM)	24.3 (≈ 37.7 µM)	0.12 (≈ 0.186 µM)	11 (≈ 17.1 µM)	14.5 (≈ 22.5 µM)		activation at 0.1 µg/mL [10]: 71.4%
C/C=C(\C)C(=O)O[C@H]1C(C)=C[C@]23C(=O)[C@@H](C=C(CO)[C@@H](O)[C@]12O)[C@@H]1C(C)(C)[C@]1(OC(=O)CCCCCCCCCCC)C[C@H]3C [Compound 20, 3-O-tigloyl-13-O-dodecanoyl-ingenol]	6.8 (≈ 10.8 µM)	109	9.91 (≈ 15.8 µM)	3.33 (≈ 5.3 µM)	11 (≈ 17.5 µM)	7.45 (≈ 11.8 µM)	0.81 (≈ 1.29 µM)	13.1 (≈ 20.8 µM)	18.4 (≈ 29.3 µM)	43.8	
CCCCCCCCCCCC(=O)O[C@@]12C[C@@H](C)[C@]34C=C(C)[C@H](O)[C@@]3(O)[C@H](O)C(COC(=O)C(C)C(C)C)=C[C@H](C4=O)[C@@H]1C2(C)C (some centres unmarked) [20-O-(2,3-dimethylbutyryl)-13-O-dodecanoyl-ingenol]	10.1 (≈ 15.7 µM)		8.36 (≈ 13 µM)	16.6 (≈ 25.7 µM)	11 (≈ 17.1 µM)	14.5 (≈ 22.5 µM)	0.64 (≈ 0.992 µM)	8.89 (≈ 13.8 µM)	10.7 (≈ 16.6 µM)	64.5	
CCCCCCCCCC(=O)O[C@@]12C[C@@H](C)[C@]34C=C(C)[C@H](O)[C@@]3(O)[C@H](O)C(COC(=O)C(C)C(C)C)=C[C@H](C4=O)[C@@H]1C2(C)C (some centres unmarked) [Compound 14, 20-O-(2,3-dimethylbutyryl)-13-O-decanoyl-ingenol]										62.8	activation at 1 µg/mL ([2]; 1 μg/mL): 22.6%
CCCCCCCCCCCC(=O)O[C@@]12C[C@@H](C)[C@]34C=C(C)[C@H](OC(=O)CCC)[C@@]3(O)[C@H](O)C(CO)=C[C@H](C4=O)[C@@H]1C2(C)C [Compound 11, 3-O-n-butanoyl-13-O-dodecanoyl-ingenol]	18.5 (≈ 30 µM)		8.82 (≈ 14.3 µM)	26.2 (≈ 42.5 µM)	13.4 (≈ 21.7 µM)	20.3 (≈ 32.9 µM)	0.1 (≈ 0.162 µM)	14.3 (≈ 23.2 µM)	19.1 (≈ 31 µM)	33.5	
CCCCCCCCCCCC(=O)O[C@@]12C[C@@H](C)[C@]34C=C(C)[C@H](OC(=O)CCCCC)[C@@]3(O)[C@H](O)C(CO)=C[C@H](C4=O)[C@@H]1C2(C)C [3-O-hexanoyl-13-O-dodecanoyl-ingenol]	14 (≈ 21.7 µM)	66	16.5 (≈ 25.6 µM)		18.3 (≈ 28.4 µM)		< 0.2	18.5 (≈ 28.7 µM)	16.1 (≈ 25 µM)		activation at 0.1 µg/mL [10]: 173%
C/C=C(/C)C(=O)OCC1=C[C@@H]2C(=O)[C@]3(C=C(C)[C@H](O)[C@@]3(O)[C@@H]1O)[C@H](C)C[C@]1(OC(=O)CCCCCCCCCCC)[C@H]2C1(C)C [Compound 15b, 20-O-angeloyl-13-O-dodecanoyl-ingenol]	23.3 (≈ 37.1 µM)		15.2 (≈ 24.2 µM)	9.09 (≈ 14.5 µM)	20.6 (≈ 32.8 µM)	10.2 (≈ 16.2 µM)	0.001 (≈ 0.00159 µM)	10 (≈ 15.9 µM)	13.1 (≈ 20.8 µM)	360	
C/C=C(/C)C(=O)O[C@H]1C(C)=C[C@]23C(=O)[C@@H](C=C(CO)[C@@H](O)[C@]12O)[C@H]1[C@@H](C[C@H]3C)C1(C)C [3-O-angeloyl-ingenol, reference compound]											IC50 value of compound for inhibition of proliferation of tumor cell lines, MCF-7 ([1]; MCF-7, 72 h): 57.4 µg/mL; Efficiency of compound in stimulating the release of IL-8 by HaCaT cells ([2]; 0.1 μg/mL): 31.9%; Efficiency of compound in stimulating the release of IL-8 by HaCaT cells ([2]; 1 μg/mL): 41.4%; IC50 value of compound for inhibition of proliferation of tumor cell lines, LOVO [3]: 33.4 µg/mL; IC50 value of compound for inhibition of proliferation of tumor cell lines, B16-F10 [4]: 38.1 µg/mL; IC50 value of compound for inhibition of proliferation of tumor cell lines, BGC-823 [5]: 43.5 µg/mL; IC50 value of compound for inhibition of proliferation of tumor cell lines, HeLA [6]: 49.4 µg/mL; IC50 value of compound for inhibition of proliferation of tumor cell lines, K562 [7]: 0.0076 µg/mL; IC50 value of compound for inhibition of proliferation of tumor cell lines, A549 [8]: 31.2 µg/mL; IC50 value of compound for inhibition of proliferation of tumor cell lines, SMMC-7721 [9]: 28.2 µg/mL; Efficiency of compounds in stimulating neutrophil oxidative burst ([10]; 3 μg/mL): 51.4%
CCCCCCCCCCCC(=O)O[C@@]12C[C@@H](C)[C@]34C=C(C)[C@H](OC(C)=O)[C@@]3(O)[C@H](O)C(CO)=C[C@H](C4=O)[C@@H]1C2(C)C [Compound 10, 3-O-acetyl-13-O-dodecanoyl-ingenol]	16.3 (≈ 27.7 µM)	79.5	9.41 (≈ 16 µM)	21.4 (≈ 36.3 µM)	14.7 (≈ 25 µM)	10.9 (≈ 18.5 µM)	0.22 (≈ 0.374 µM)	10.7 (≈ 18.2 µM)	13.1 (≈ 22.2 µM)		activation at 0.1 µg/mL [10]: 111%
C/C=C(/C)C(=O)O[C@H]1C(C)=C[C@]23C(=O)[C@@H](C=C(CO)[C@@H](O)[C@]12O)[C@@H]1C(C)(C)[C@]1(O)C[C@H]3C [Compound 3, 3-O-angeloyl-13-hydroxy-ingenol]										65	activation at 1 µg/mL ([2]; 1 μg/mL): 23.8%
CCCCCCCC(=O)O[C@@]12C[C@@H](C)[C@]34C=C(C)[C@H](O)[C@@]3(O)[C@H](O)C(CO)=C[C@H](C4=O)[C@@H]1C2(C)C [Compound 7, 13-O-n-octanoyl-ingenol]	16.2 (≈ 33 µM)		24.1 (≈ 49.1 µM)	38.4 (≈ 78.3 µM)	25.1 (≈ 51.2 µM)	29.3 (≈ 59.7 µM)	1.72 (≈ 3.51 µM)	29.7 (≈ 60.5 µM)	16 (≈ 32.6 µM)	45	
